Experimental data reported in patent publication US20260356856A1, “KRAS G12S AND G12C INHIBITORS” (MIRATI THERAPEUTICS, INC., priority 2023, published 2026).

How the values were obtained:
[1] = molecular target: T1, KRas-mediated phosphorylation of ERK in MKN1 cells (Homo sapiens, UniProt P01116); experiment: Inhibition of KRas-mediated phosphorylation of ERK (HTRF), MKN1 cells; type: cell-based; conditions: MKN1 cells (KRas WT); HTRF pERK; 3 h incubation
T1 construct: pERK HTRF read-out
Description: Inhibition of KRas Phosphorylation of ERK (HTRF) by Exemplary Compounds of Formula (Ia) or (Ib)
Cisbio HTRF Advanced pERK Assay Catalog #64AERPEH • Cells: MKN1, PSN1 • Procedure: • 1. Day 1: Seed 6,000 cells/well −25 μl/well in 384-well white solid bottom plate; RPM1_10% FBS. Incubate overnight at 37 °C/5% CO2. • 2.

[2] = molecular target: T2, KRas-mediated phosphorylation of ERK in A549 cells (Homo sapiens, UniProt P01116, G12S); experiment: Inhibition of KRas-mediated phosphorylation of ERK (HTRF), A549 cells; type: cell-based; conditions: HTRF pERK, 3 h incubation
T2 construct: pERK HTRF read-out
T2 sequence (P01116 1-188 isoform P01116-2 G12S): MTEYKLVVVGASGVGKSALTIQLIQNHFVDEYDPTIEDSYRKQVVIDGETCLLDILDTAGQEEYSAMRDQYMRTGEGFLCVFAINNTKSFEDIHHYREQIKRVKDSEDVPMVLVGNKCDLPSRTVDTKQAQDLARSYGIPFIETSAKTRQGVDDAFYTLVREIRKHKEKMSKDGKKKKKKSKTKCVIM

KRas WT = molecular target: T3, KRas WT (Homo sapiens, UniProt P01116); experiment: KRas binding assay, TR-FRET displacement of Cy5 labelled tracer; conditions: 60-minute incubation at room temperature, 1% DMSO, pH 7.5
T3 construct: Biotinylated KRas (corresponding to amino acids 1-169, produced at Accelegan Inc.); biotin (biotinylated); purchased Accelegan Inc
T3 sequence (P01116 1-169 isoform P01116-2): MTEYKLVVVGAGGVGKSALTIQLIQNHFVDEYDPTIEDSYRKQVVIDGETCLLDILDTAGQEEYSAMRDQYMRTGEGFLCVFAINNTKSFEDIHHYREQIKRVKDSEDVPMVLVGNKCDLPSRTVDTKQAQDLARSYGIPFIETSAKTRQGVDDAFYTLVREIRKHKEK
How it was run: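 Tb-streptavidin captured biotinylated KRas (1-169) in HEPES 50 mM, DTT 1 mM, MgCl2 5 mM, Tween-20 0.005% (pH 7.5), alongside tracer and compound at 1% final DMSO. One hour at RT, then read; IC50 from 4-parameter POC fit.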

KRas G12C = molecular target: T4, KRas G12C (Homo sapiens, UniProt P01116, G12C); experiment: as above; conditions: 60-minute incubation at room temperature, 1% DMSO, pH 7.5
T4 construct: Biotinylated KRas (corresponding to amino acids 1-169, produced at Accelegan Inc.); biotin (biotinylated); purchased Accelegan Inc
T4 sequence (P01116 1-169 isoform P01116-2 G12C): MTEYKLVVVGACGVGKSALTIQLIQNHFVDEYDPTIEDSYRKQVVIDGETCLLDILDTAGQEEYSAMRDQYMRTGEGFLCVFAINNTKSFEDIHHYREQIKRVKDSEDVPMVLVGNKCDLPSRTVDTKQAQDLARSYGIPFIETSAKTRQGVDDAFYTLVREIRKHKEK
How it was run: (§1)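 Biotinylated KRas (aa 1-169) incubated with Cy5-labelled tracer, terbium streptavidin and compound (1% DMSO final) in 50 mM HEPES pH 7.5, 5 mM MgCl2, 0.005% Tween-20, 1 mM DTT. Tracer displacement read by TR-FRET after 60 min at room temperature; POC values fitted to 4-parameter IC50 equation.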

KRas G12S = molecular target: T5, KRas G12S (Homo sapiens, UniProt P01116, G12S); experiment: as above; conditions: 60-minute incubation at room temperature, 1% DMSO, pH 7.5
T5 construct: Biotinylated KRas (corresponding to amino acids 1-169, produced at Accelegan Inc.); biotin (biotinylated); purchased Accelegan Inc
T5 sequence (P01116 1-169 isoform P01116-2 G12S): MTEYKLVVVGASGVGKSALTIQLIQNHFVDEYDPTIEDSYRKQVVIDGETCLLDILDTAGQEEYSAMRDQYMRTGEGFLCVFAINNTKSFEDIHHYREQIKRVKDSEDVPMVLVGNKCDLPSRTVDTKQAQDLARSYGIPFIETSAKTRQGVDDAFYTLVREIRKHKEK
How it was run: as §1

T1 sequence (P01116 1-188 isoform P01116-2): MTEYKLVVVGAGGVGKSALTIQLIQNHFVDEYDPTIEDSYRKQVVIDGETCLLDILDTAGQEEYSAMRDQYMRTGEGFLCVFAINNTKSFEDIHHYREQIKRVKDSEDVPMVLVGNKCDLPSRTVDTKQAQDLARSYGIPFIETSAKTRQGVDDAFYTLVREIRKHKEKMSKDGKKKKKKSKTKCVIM

| Compound | IC50 [1] [nM] | IC50 [2] [nM] | IC50 (KRas WT) [nM] | IC50 (KRas G12C) [nM] | IC50 (KRas G12S) [nM] |
| --- | --- | --- | --- | --- | --- |
| CCc1c(F)ccc2cc(O)cc(-c3ncc4c(N5CCC(OC)(C(=O)n6ccc(C)n6)CC5)nc(OC[C@@]56CCCN5C[C@H](F)C6)nc4c3F)c12 [Example 88, (1-(7-(8-ethyl-7-fluoro-3-hydroxynaphthalen-1-yl)-8-fluoro-2-(((2R,7aS)-2-fluorotetrahydro-1H-pyrrolizin-7a(5H)-yl)methoxy)pyrido[4,3-d]pyrimidin-4-yl)-4-methoxypiperidin-4-yl)(3-methyl-1H-pyrazol-1-yl)methanone] | 8070 | 589 | 1760 | 116 | 1060 |
| CCc1c(F)ccc2cc(O)cc(-c3ncc4c(N5CCC(COC)(C(=O)n6ccc(C)n6)CC5)nc(OC[C@@]56CCCN5C[C@H](F)C6)nc4c3F)c12 [Example 89, (1-(7-(8-ethyl-7-fluoro-3-hydroxynaphthalen-1-yl)-8-fluoro-2-(((2R,7aS)-2-fluorotetrahydro-1H-pyrrolizin-7a(5H)-yl)methoxy)pyrido[4,3-d]pyrimidin-4-yl)-4-(methoxymethyl)piperidin-4-yl)(3-methyl-1H-pyrazol-1-yl)methanone] | > 10000 | > 10000 | 8490 | 2470 | 6630 |
| CCc1c(F)ccc2cc(O)cc(-c3ncc4c(N5CC6CC5CC6C(=O)n5ccc(C)n5)nc(OC[C@@]56CCCN5C[C@H](F)C6)nc4c3F)c12 (stereo partly drawn) [Example 90, (2-(7-(8-ethyl-7-fluoro-3-hydroxynaphthalen-1-yl)-8-fluoro-2-(((2R,7aS)-2-fluorotetrahydro-1H-pyrrolizin-7a(5H)-yl)methoxy)pyrido[4,3-d]pyrimidin-4-yl)-2-azabicyclo[2.2.1]heptan-5-yl)(3-methyl-1H-pyrazol-1-yl)methanone] | 9190 | > 10000 | 233 | 260 | 286 |
| CCc1c(F)ccc2cc(O)cc(-c3ncc4c(N5CCC6CC6(C(=O)n6ccc(C)n6)CC5)nc(OC[C@@]56CCCN5C[C@H](F)C6)nc4c3F)c12 (stereo partly drawn) [Example 91, (4-(7-(8-ethyl-7-fluoro-3-hydroxynaphthalen-1-yl)-8-fluoro-2-(((2R,7aS)-2-fluorotetrahydro-1H-pyrrolizin-7a(5H)-yl)methoxy)pyrido[4,3-d]pyrimidin-4-yl)-4-azabicyclo[5.1.0]octan-1-yl)(3-methyl-1H-pyrazol-1-yl)methanone] | 853 | 210 | 317 | 141 | 62 |
| CCc1c(F)ccc2cc(O)cc(-c3ncc4c(NCC56CC(C(=O)n7ccc(C)n7)(C5)C6)nc(OC[C@@]56CCCN5C[C@H](F)C6)nc4c3F)c12 [Example 92, (3-(((7-(8-ethyl-7-fluoro-3-hydroxynaphthalen-1-yl)-8-fluoro-2-(((2R,7aS)-2-fluorotetrahydro-1H-pyrrolizin-7a(5H)-yl)methoxy)pyrido[4,3-d]pyrimidin-4-yl)amino)methyl)bicyclo[1.1.1]pentan-1-yl)(3-methyl-1H-pyrazol-1-yl)methanone] | > 10000 | 1380 | 59 | 3 | 17 |
| CCc1c(F)ccc2cc(O)cc(-c3ncc4c(NCC5CC(C(=O)n6ccc(C)n6)C5)nc(OC[C@@]56CCCN5C[C@H](F)C6)nc4c3F)c12 (stereo partly drawn) [Example 93, (3-(((7-(8-ethyl-7-fluoro-3-hydroxynaphthalen-1-yl)-8-fluoro-2-(((2R,7aS)-2-fluorotetrahydro-1H-pyrrolizin-7a(5H)-yl)methoxy)pyrido[4,3-d]pyrimidin-4-yl)amino)methyl)cyclobutyl)(3-methyl-1H-pyrazol-1-yl)methanone] | 325 | 26 | 13 | 4 | 3 |

Further lines, results first:

| IC50 [1] [nM] | IC50 [2] [nM] | IC50 (KRas WT) [nM] | IC50 (KRas G12C) [nM] | IC50 (KRas G12S) [nM] | Compound |
| --- | --- | --- | --- | --- | --- |
| 6200 | 1070 | 306 | 15 | 232 | CCc1c(F)ccc2cc(O)cc(-c3ncc4c(N5CCC(C)(C(=O)n6ccc(C)n6)C5)nc(OC[C@@]56CCCN5C[C@H](F)C6)nc4c3F)c12 (stereo partly drawn) [Example 94, (1-(7-(8-ethyl-7-fluoro-3-hydroxynaphthalen-1-yl)-8-fluoro-2-(((2R,7aS)-2-fluorotetrahydro-1H-pyrrolizin-7a(5H)-yl)methoxy)pyrido[4,3-d]pyrimidin-4-yl)-3-methylpyrrolidin-3-yl)(3-methyl-1H-pyrazol-1-yl)methanone] |
| > 10000 | 4220 | 1080 | 257 | 1600 | CCc1c(F)ccc2cc(O)cc(-c3ncc4c(N5CCC(COC)(C(=O)n6ccc(C)n6)C5)nc(OC[C@@]56CCCN5C[C@H](F)C6)nc4c3F)c12 (stereo partly drawn) [Example 95, (1-(7-(8-ethyl-7-fluoro-3-hydroxynaphthalen-1-yl)-8-fluoro-2-(((2R,7aS)-2-fluorotetrahydro-1H-pyrrolizin-7a(5H)-yl)methoxy)pyrido[4,3-d]pyrimidin-4-yl)-3-(methoxymethyl)pyrrolidin-3-yl)(3-methyl-1H-pyrazol-1-yl)methanone] |
| > 10000 | > 10000 | 162 | 375 | 339 | CCc1c(F)ccc2cc(O)cc(-c3ncc4c(N5C[C@H](C(=O)n6ccc(C)n6)[C@@H](C)C5)nc(OC[C@@]56CCCN5C[C@H](F)C6)nc4c3F)c12 [Example 96, ((3R,4R)-1-(7-(8-ethyl-7-fluoro-3-hydroxynaphthalen-1-yl)-8-fluoro-2-(((2R,7aS)-2-fluorotetrahydro-1H-pyrrolizin-7a(5H)-yl)methoxy)pyrido[4,3-d]pyrimidin-4-yl)-4-methylpyrrolidin-3-yl)(3-methyl-1H-pyrazol-1-yl)methanone] |
| 2850 | 2120 | 125 | 395 | 201 | CCc1c(F)ccc2cc(O)cc(-c3ncc4c(N5CCC(C(=O)n6ccc(C)n6)C6CC65)nc(OC[C@@]56CCCN5C[C@H](F)C6)nc4c3F)c12 (stereo partly drawn) [Example 97, (2-(7-(8-ethyl-7-fluoro-3-hydroxynaphthalen-1-yl)-8-fluoro-2-(((2R,7aS)-2-fluorotetrahydro-1H-pyrrolizin-7a(5H)-yl)methoxy)pyrido[4,3-d]pyrimidin-4-yl)-2-azabicyclo[4.1.0]heptan-5-yl)(3-methyl-1H-pyrazol-1-yl)methanone] |
| 2490 | 61 | 178 | 73 | 20 | CCc1c(F)ccc2cc(O)cc(-c3ncc4c(N5CC6CC(C(=O)n7ccc(C)n7)C6C5)nc(OC[C@@]56CCCN5C[C@H](F)C6)nc4c3F)c12 (stereo partly drawn) [Example 98, (3-(7-(8-ethyl-7-fluoro-3-hydroxynaphthalen-1-yl)-8-fluoro-2-(((2R,7aS)-2-fluorotetrahydro-1H-pyrrolizin-7a(5H)-yl)methoxy)pyrido[4,3-d]pyrimidin-4-yl)-3-azabicyclo[3.2.0]heptan-6-yl)(3-methyl-1H-pyrazol-1-yl)methanone] |
| > 10000 | > 10000 | 7690 | 4840 | 4720 | CCc1c(F)ccc2cc(O)cc(-c3ncc4c(N5C[C@H]6C[C@@H](C5)[C@H](C(=O)n5ccc(C)n5)C6)nc(OC[C@@]56CCCN5C[C@H](F)C6)nc4c3F)c12 [Example 100, ((1S,5R,6R)-3-(7-(8-ethyl-7-fluoro-3-hydroxynaphthalen-1-yl)-8-fluoro-2-(((2R,7aS)-2-fluorotetrahydro-1H-pyrrolizin-7a(5H)-yl)methoxy)pyrido[4,3-d]pyrimidin-4-yl)-3-azabicyclo[3.2.1]octan-6-yl)(3-methyl-1H-pyrazol-1-yl)methanone] |
| 5550 | > 10000 | 716 | 784 | 934 | CCc1c(F)ccc2cc(O)cc(-c3ncc4c(N5CC(C(=O)n6ccc(C)n6)C(C)(C)C5)nc(OC[C@@]56CCCN5C[C@H](F)C6)nc4c3F)c12 (stereo partly drawn) [Example 101, (1-(7-(8-ethyl-7-fluoro-3-hydroxynaphthalen-1-yl)-8-fluoro-2-(((2R,7aS)-2-fluorotetrahydro-1H-pyrrolizin-7a(5H)-yl)methoxy)pyrido[4,3-d]pyrimidin-4-yl)-4,4-dimethylpyrrolidin-3-yl)(3-methyl-1H-pyrazol-1-yl)methanone] |
| > 10000 | 1930 | 5920 | 252 | 2140 | C=CC1(C(=O)n2ccc(C)n2)CCN(c2nc(OC[C@@]34CCCN3C[C@H](F)C4)nc3c(F)c(-c4cc(O)cc5ccc(F)c(CC)c45)ncc23)CC1 [Example 102, (1-(7-(8-ethyl-7-fluoro-3-hydroxynaphthalen-1-yl)-8-fluoro-2-(((2R,7aS)-2-fluorotetrahydro-1H-pyrrolizin-7a(5H)-yl)methoxy)pyrido[4,3-d]pyrimidin-4-yl)-4-vinylpiperidin-4-yl)(3-methyl-1H-pyrazol-1-yl)methanone] |
